{"source": "patent US10016409B2", "about": "“Method for improving interstitial flow” (priority 2012, dated 2018)", "key": {"MCI patients [1]": {"test_system": "MCI patients", "assay": "Clinical record analysis, MMSE change in MCI patients (MMSE 22 to 26) under donepezil hydrochloride oral administration", "format": "in vivo, human", "conditions": "MCI patients MMSE 22-26", "text": "Patients subjected to oral administration of donepezil hydrochloride, having an observation period of one or more years before the MMSE test date, and having first MMSE scores less than or equal to 26 were picked up from a clinical record. Among the patients, patients recorded to have been consecutively administered with cilostazol for 6 months or more in the observation period were classified as a donepezil hydrochloride and cilostazol combined use group (69 cases), and patients recorded to have experienced no cilostazol oral administration were classified as a donepezil hydrochloride single use group (87 cases). Cilostazol was oral-administered at a dosage of 50 to 200 mg/day in the morning and evening, and donepezil hydrochloride was administered at a dosage of 5 mg/day once in a day. Among the patients, patients with MMSE scores greater than or equal to 22 and less than or equal to 26 were extracted as an MCI patient group. Then, 36 cases (16 males and 20 females, average age: 78.4 years old) of the donepezil hydrochloride single use group (hereinafter referred to as a single use group) and 34 cases (15 males and 19 females, average age: 77.2 years old) of the donepezil hydrochloride and cilostazol combined use group (hereinafter referred to as combined use group) were found. The average dosage of cilostazol in the combined use group was 121 mg/day. […] Measurement of MMSE was conducted at least twice in the observation period, and the first and last test results were selected for analysis."}, "dementia patients": {"test_system": "dementia patients", "assay": "Clinical record analysis, MMSE change in dementia patients (MMSE less than or equal to 21) under donepezil hydrochloride oral administration", "format": "in vivo, human", "conditions": "dementia patients MMSE less than or equal to 21", "text": "Patients subjected to oral administration of donepezil hydrochloride, having an observation period of one or more years before the MMSE test date, and having first MMSE scores less than or equal to 26 were picked up from a clinical record. Among the patients, patients recorded to have been consecutively administered with cilostazol for 6 months or more in the observation period were classified as a donepezil hydrochloride and cilostazol combined use group (69 cases), and patients recorded to have experienced no cilostazol oral administration were classified as a donepezil hydrochloride single use group (87 cases). Cilostazol was oral-administered at a dosage of 50 to 200 mg/day in the morning and evening, and donepezil hydrochloride was administered at a dosage of 5 mg/day once in a day.\nAs a dementia patient group oral-administered with donepezil hydrochloride, patients with MMSE scores less than or equal to 21 were extracted. Then, the donepezil hydrochloride single use group (the single use group) was 51 cases (17 males and 34 females, average age: 78.2 years old) and the donepezil hydrochloride and cilostazol combined use group (the combined use group) was 35 cases (14 males and 21 females, average age: 79.3 years old). The average dosage of cilostazol in the combined use group was 139 mg/day."}, "MCI patients [2]": {"test_system": "MCI patients", "conditions": "cited from earlier work; for conversion from MCI to Alzheimer: Non-patent Document 3; for effectiveness on MCI patients: clinical trials, Guidelines for Management of Dementia"}}, "note": "Structures can show the parent of a compound that is named as a salt.", "data": [{"compound": "COc1cc2c(cc1OC)C(=O)C(CC1CCN(Cc3ccccc3)CC1)C2", "note": "(stereo not drawn) [donepezil hydrochloride]", "values": [{"measurement": "MMSE change rate", "setting": "MCI patients [1]; increment or decrement of MMSE score/observation period [year], average±standard error, p=0.022 between groups", "value": "−2.23±0.69"}, {"measurement": "change rate of MMSE item 1 of orientation to time", "setting": "MCI patients [1]; per observation period [year], p=0.003", "value": "−0.85"}, {"measurement": "change rate of MMSE item 2 of orientation to location", "setting": "MCI patients [1]; per observation period [year], p=0.017", "value": "−0.31"}, {"measurement": "change rate of MMSE item 5 of delayed recall", "setting": "MCI patients [1]; per observation period [year], p=0.045", "value": "−0.28"}, {"measurement": "change rate of MMSE item 5 of delayed recall", "setting": "dementia patients; p=0.37", "value": "−0.15"}, {"measurement": "change rate of MMSE item 2 of orientation to location", "setting": "dementia patients; p=0.86", "value": "−0.13"}, {"measurement": "change rate of MMSE item 1 of orientation to time", "setting": "dementia patients; p=0.89", "value": "−0.16"}, {"measurement": "MMSE change rate", "setting": "dementia patients; per observation period, average±standard error, p=0.72 between groups", "value": "−0.90±037"}, {"measurement": "conversion from MCI to Alzheimer", "setting": "MCI patients [2]", "value": "do not affect conversion from MCI to Alzheimer"}, {"measurement": "effectiveness on MCI patients", "setting": "MCI patients [2]", "value": "very limited or is not present"}]}, {"compound": "CCN(C)C(=O)Oc1cccc([C@H](C)N(C)C)c1", "note": "[rivastigmine]", "values": [{"measurement": "effectiveness on MCI patients", "setting": "MCI patients [2]", "value": "very limited or is not present"}]}, {"compound": "CS(=O)(=O)c1ccc(C2=C(c3ccccc3)C(=O)OC2)cc1", "note": "[rofecoxib]", "values": [{"measurement": "prophylactic effects (dementia or MCI)", "setting": "MCI patients [2]; guideline p. 116, Other Drugs (2)", "value": "no prophylactic effects"}]}, {"compound": "estrogen", "values": [{"measurement": "risk of onset of dementia or MCI", "setting": "MCI patients [2]; RCT, postmenopausal women of 65 years of age or more without dementia", "value": "increased the risk of onset of dementia or MCI significantly"}]}, {"compound": "vitamin E", "values": [{"measurement": "conversion from MCI to Alzheimer", "setting": "MCI patients [2]", "value": "do not affect conversion from MCI to Alzheimer"}, {"measurement": "dementia prophylactic effect / prophylactic effect against conversion to Alzheimer", "setting": "MCI patients [2]; RCT directed to MCI patients", "value": "neither dementia prophylactic effect nor prophylactic effect against conversion to Alzheimer was obtained"}]}]}
